Experimental data: patent publication US20130089512A1, “HETEROARYL IMIDAZOLONE DERIVATIVES AS JAK INHIBITORS” (priority 2010, published 2013)

How the values were obtained:
human JAK1 (aa 850-1154) = human JAK1 (aa 850-1154) (Homo sapiens, UniProt P23458); experiment: In vitro JAK kinase assay (TR-FRET), JAK1
Description: (§1) The enzymatic activity was assayed using as substrate a biotinylated peptide, poly (GT)-Biotin (CisBio). […] The degree of phosphorylation was detected by TR-FRET (time-resolved fluorescence energy transfer). […] The enzymatic reactions took place for 30 minutes at room temperature. […] Incubate for 3 h and read on Victor 2V spectrofluorometer (PerkinElmer) set to read fluorescence resonance energy transfer.

human JAK2 (aa 826-1132) = human JAK2 (aa 826-1132) (Homo sapiens, UniProt O60674); experiment: In vitro JAK kinase assay (TR-FRET), JAK2
Description: as §1

human JAK3 (aa 795-1124) = human JAK3 (aa 795-1124) (Homo sapiens, UniProt P52333); experiment: In vitro JAK kinase assay (TR-FRET), JAK3
human JAK3 (aa 795-1124), sequence (P52333 795-1124): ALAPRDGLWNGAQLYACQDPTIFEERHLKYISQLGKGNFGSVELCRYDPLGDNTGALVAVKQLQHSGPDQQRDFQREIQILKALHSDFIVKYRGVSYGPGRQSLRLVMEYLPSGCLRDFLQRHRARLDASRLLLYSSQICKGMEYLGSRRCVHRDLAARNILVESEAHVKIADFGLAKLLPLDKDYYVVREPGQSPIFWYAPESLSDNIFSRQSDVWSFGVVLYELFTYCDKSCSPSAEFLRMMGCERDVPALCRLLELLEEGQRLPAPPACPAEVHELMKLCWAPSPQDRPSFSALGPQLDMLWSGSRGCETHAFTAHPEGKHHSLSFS
Description: as §1

human JAK2 (aa 826-1132), sequence (O60674 826-1132): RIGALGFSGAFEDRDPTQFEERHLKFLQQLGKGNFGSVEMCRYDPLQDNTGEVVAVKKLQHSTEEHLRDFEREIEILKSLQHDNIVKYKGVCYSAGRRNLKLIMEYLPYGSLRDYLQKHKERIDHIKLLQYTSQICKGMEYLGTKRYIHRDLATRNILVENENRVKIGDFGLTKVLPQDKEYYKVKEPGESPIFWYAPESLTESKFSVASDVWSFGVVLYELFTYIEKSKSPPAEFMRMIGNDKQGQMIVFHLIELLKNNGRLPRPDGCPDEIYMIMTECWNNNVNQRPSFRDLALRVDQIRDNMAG
human JAK1 (aa 850-1154), sequence (P23458 850-1154): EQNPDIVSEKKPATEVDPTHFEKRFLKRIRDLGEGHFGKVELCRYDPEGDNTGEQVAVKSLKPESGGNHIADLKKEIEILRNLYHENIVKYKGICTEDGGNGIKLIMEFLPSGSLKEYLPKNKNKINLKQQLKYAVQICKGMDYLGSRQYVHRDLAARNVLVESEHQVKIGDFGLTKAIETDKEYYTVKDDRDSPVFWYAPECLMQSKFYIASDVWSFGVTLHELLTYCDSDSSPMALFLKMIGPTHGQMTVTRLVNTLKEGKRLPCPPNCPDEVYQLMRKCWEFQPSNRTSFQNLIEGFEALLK

IC50 (human JAK1 (aa 850-1154)) | IC50 (human JAK2 (aa 826-1132)) | IC50 (human JAK3 (aa 795-1124)) | Compound
100 to 1000 nM |  |  | C[C@@H]1CCCC[C@@H]1n1c(=O)[nH]c2cnc(-c3cnc4ccc(C#N)cn34)nc21 [Example 3, 3-(9-((1S,2R)-2-Methylcyclohexyl)-8-oxo-8,9-dihydro-7H-purin-2-yl)imidazo[1,2-a]pyridine-6-carbonitrile]
100 to 1000 nM | < 100 nM | 100 to 1000 nM | O=c1[nH]c2cnc(-c3cnc4ccc(F)cn34)nc2n1[C@H](CO)c1ccc(F)cn1 [Example 35, (S)-2-(6-Fluoroimidazo[1,2-a]pyridin-3-yl)-9-(1-(5-fluoropyridin-2-yl)-2-hydroxyethyl)-7H-purin-8(9H)-one]
> 1000 nM | < 100 nM | 100 to 1000 nM | N#CC1(n2c(=O)[nH]c3cnc(-c4cnc5ccc(F)cn45)nc32)CCCCC1 [Example 36, 1-(2-(6-Fluoroimidazo[1,2-a]pyridin-3-yl)-8-oxo-7H-purin-9(8H)-yl)cyclohexane carbonitrile]
> 1000 nM | 100 to 1000 nM | 100 to 1000 nM | CC1(C)CC(n2c(=O)[nH]c3cnc(-c4cnc5ccc(F)cn45)nc32)c2cccnc2O1 (stereo not shown) [Example 42, 9-(2,2-Dimethyl-3,4-dihydro-2H-pyrano[2,3-b]pyridin-4-yl)-2-(6-fluoroimidazo[1,2-a]pyridin-3-yl)-7H-purin-8(9H)-one]
> 1000 nM | 100 to 1000 nM | 100 to 1000 nM | C[C@H](CC(N)=O)n1c(=O)[nH]c2cnc(-c3cnc4ccc(F)cn34)nc21 [Example 58, (R)-3-(2-(6-Fluoroimidazo[1,2-a]pyridin-3-yl)-8-oxo-7H-purin-9(8H)-yl)butanamide]
> 1000 nM | < 100 nM | 100 to 1000 nM | CS(=O)(=O)N1CCC[C@@H](n2c(=O)[nH]c3cnc(-c4cnc5ccc(F)cn45)nc32)C1 [Example 62, 2-(6-Fluoroimidazo[1,2-a]pyridin-3-yl)-9-[(3R)-1-(methylsulfonyl)piperidin-3-yl]-7,9-dihydro-8H-purin-8-one]
> 1000 nM | < 100 nM | < 100 nM | CS(=O)(=O)N1CCC(n2c(=O)[nH]c3ccc(-c4cnc5ccc(F)cn45)nc32)CC1 [Example 71, 5-(6-Fluoroimidazo[1,2-a]pyridin-3-yl)-3-[1-(methylsulfonyl)piperidin-4-yl]-1,3-dihydro-2H-imidazo[4,5-b]pyridin-2-one]
100 to 1000 nM | < 100 nM | < 100 nM | O=c1[nH]c2cc(F)c(-c3cnc4ccc(F)cn34)nc2n1C1CCOCC1 [Example 73, 6-Fluoro-5-(6-fluoroimidazo[1,2-a]pyridin-3-yl)-3-(tetrahydro-2H-pyran-4-yl)-1,3-dihydro-2H-imidazo[4,5-b]pyridin-2-one]
< 100 nM | < 100 nM | < 100 nM | C[C@H](c1ccc(F)cn1)n1c(=O)[nH]c2cnc(-c3cnn4ccncc34)nc21 [Example 79, (R)-9-(1-(5-Fluoropyridin-2-yl)ethyl)-2-(pyrazolo[1,5-a]pyrazin-3-yl)-7H-purin-8(9H)-one]
100 to 1000 nM | 100 to 1000 nM | 100 to 1000 nM | O=c1[nH]c2cnc(-c3cnn4ccncc34)nc2n1CC1CCOCC1 [Example 80, 2-(Pyrazolo[1,5-a]pyrazin-3-yl)-9-((tetrahydro-2H-pyran-4-yl)methyl)-7H-purin-8(9H)-one]
< 100 nM | < 100 nM | < 100 nM | O=c1[nH]c2cnc(-c3cnn4ccncc34)nc2n1C1CCC(F)(F)CC1 [Example 81, 9-(4,4-Difluorocyclohexyl)-2-(pyrazolo[1,5-a]pyrazin-3-yl)-7H-purin-8(9H)-one]
> 1000 nM | < 100 nM | < 100 nM | O=c1[nH]c2cnc(-c3cnn4cc(F)ccc34)nc2n1C1CCOCC1 [Example 89, 2-(6-Fluoropyrazolo[1,5-a]pyridin-3-yl)-9-(tetrahydro-2H-pyran-4-yl)-7H-purin-8(9H)-one]
100 to 1000 nM | < 100 nM | 100 to 1000 nM | O=c1[nH]c2cnc(-c3cnn4cccnc34)cc2n1C1CCOCC1 [Example 92, 6-(Pyrazolo[1,5-a]pyrimidin-3-yl)-1-(tetrahydro-2H-pyran-4-yl)-1H-imidazo[4,5-c]pyridin-2(3H)-one]
> 1000 nM | < 100 nM | < 100 nM | O=c1[nH]c2c(N3CCNCC3)nc(-c3cnc4ccc(F)cn34)nc2n1C1CCOCC1 [Example 98, 2-(6-Fluoroimidazo[1,2-a]pyridin-3-yl)-6-(piperazin-1-yl)-9-(tetrahydro-2H-pyran-4-yl)-7H-purin-8(9H)-one]
